Laboratory results: US20250243194A1, “ANTAGONIST OF ADENOSINE RECEPTORS” (AdoRx Therapeutics Limited, priority 2022, published 2025)

Experiments:
[1] = molecular target: human Adenosine A1 receptor (Homo sapiens (Human), UniProt P30542); assay: Adenosine receptor TR-FRET binding assay (A1); details: inhibition of binding of 100 nM CA200645; CHO cell membranes; Ki from IC50 by Cheng and Prusoff
Protocol: (§1) All FRET binding experiments were conducted at room temperature in white 384-well plates, in assay binding buffer containing 1× LabMed (Cisbio, France), 100 μg/mL saponin, 1% DMSO and 0.02% pluronic acid. Binding of the fluorescently labelled Adenosine receptor antagonist XAC (CA200645, FRET acceptor) to terbium-labelled A1, A2a, A2b and A3 adenosine receptors (FRET donors) was detected by time-resolved FRET due to the close proximity of the donor and acceptor in a binding event. To investigate the ability of unlabelled test compounds to bind to Adenosine A1, A2a, A2b and A3 receptors, dose response curves were constructed that determined the ability of a range of concentrations to inhibit the binding of 30 nM CA200645 to the A2b receptor and 100 nM CA200645 to the A1, A2a, and A3 receptor.
(§2) Serial dilution (1:3 dilutions) of test compounds in neat DMSO and transfer of a 400 nL sample of test compound into the assay plate was carried out using the Mosquito (TTP Labtech, UK). The compound samples were incubated for 2 hours at room temperature with a fixed concentration of CA200645 defined for each receptor (see above) and CHO cell membranes containing the human Adenosine A1 (0.5 μg/well), A2a (0.3 μg/well), A2b (1 μg/well) or A3 (1 μg/well) receptor in 40 μL of assay buffer. Total and non-specific binding of CA200645 was determined in the absence and presence of 10 μM XAC, respectively. Following 2 hours incubation, the level of CA200645 binding was detected on a Pherastar FSX (BMG Labtech, Germany) using standard TR-FRET settings. The terbium donor was excited with three laser flashes at a wavelength of 337 nm, and donor and acceptor emission was detected at 620 nm and 665 nm wavelengths, respectively. FRET ratios were obtained by multiplying the acceptor/donor ratio value by 10,000. Specific binding was determined by subtracting the non-specific binding FRET ratio from the total binding FRET ratio. Compound IC50 curves were analysed using GraphPad Prism 7.0 (GraphPad, USA) and Ki affinity values were determined from the obtained IC50 values using the method of Cheng and Prusoff.

[2] = molecular target: human Adenosine A2a receptor (Homo sapiens (Human), UniProt P29274); assay: Adenosine receptor TR-FRET binding assay (A2a); details: inhibition of binding of 100 nM CA200645; CHO cell membranes; Ki from IC50 by Cheng and Prusoff
human Adenosine A2a receptor, sequence (P29274 whole entry): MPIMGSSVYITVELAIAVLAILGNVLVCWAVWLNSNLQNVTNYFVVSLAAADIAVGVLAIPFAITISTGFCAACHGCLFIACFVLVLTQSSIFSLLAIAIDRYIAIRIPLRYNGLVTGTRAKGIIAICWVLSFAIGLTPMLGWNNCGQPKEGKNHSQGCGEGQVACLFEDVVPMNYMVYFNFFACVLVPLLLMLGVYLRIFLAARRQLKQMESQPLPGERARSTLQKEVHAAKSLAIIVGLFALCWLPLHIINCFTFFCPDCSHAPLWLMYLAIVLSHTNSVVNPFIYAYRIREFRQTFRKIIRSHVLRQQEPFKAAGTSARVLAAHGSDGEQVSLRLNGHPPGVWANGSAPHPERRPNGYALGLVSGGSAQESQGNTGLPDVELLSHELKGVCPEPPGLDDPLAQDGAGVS
Protocol: as §1, §2

[3] = molecular target: human Adenosine A2b receptor (Homo sapiens (Human), UniProt P29275); assay: Adenosine receptor TR-FRET binding assay (A2b); details: inhibition of binding of 30 nM CA200645; CHO cell membranes; Ki from IC50 by Cheng and Prusoff
human Adenosine A2b receptor, sequence (P29275 whole entry): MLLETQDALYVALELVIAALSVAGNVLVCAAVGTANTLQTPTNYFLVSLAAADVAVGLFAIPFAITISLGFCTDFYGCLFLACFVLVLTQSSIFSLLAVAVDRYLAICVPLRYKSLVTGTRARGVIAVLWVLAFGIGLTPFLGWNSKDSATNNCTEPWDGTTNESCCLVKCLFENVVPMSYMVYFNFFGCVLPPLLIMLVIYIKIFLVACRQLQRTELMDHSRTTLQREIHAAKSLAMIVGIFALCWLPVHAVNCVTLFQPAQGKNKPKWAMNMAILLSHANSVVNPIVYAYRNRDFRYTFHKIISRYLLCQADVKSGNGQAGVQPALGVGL
Protocol: as §1, §2

[4] = molecular target: human Adenosine A3 receptor (Homo sapiens (Human), UniProt P0DMS8); assay: Adenosine receptor TR-FRET binding assay (A3); details: inhibition of binding of 100 nM CA200645; CHO cell membranes; Ki from IC50 by Cheng and Prusoff
human Adenosine A3 receptor, sequence (P0DMS8 whole entry): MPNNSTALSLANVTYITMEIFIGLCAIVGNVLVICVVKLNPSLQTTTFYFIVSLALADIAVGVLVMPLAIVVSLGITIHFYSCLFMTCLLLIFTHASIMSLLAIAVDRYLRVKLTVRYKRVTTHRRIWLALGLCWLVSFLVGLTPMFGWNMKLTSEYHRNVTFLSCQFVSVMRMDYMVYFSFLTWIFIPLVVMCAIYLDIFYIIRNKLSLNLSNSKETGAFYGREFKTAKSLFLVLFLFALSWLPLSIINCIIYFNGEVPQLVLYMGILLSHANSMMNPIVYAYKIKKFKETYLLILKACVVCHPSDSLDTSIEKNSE
Protocol: as §1, §2

[5] = tested on: CD8+ T cells in human whole blood; assay: Measurement of pCREB in CD8+ T cells in human whole blood; assay type: cell-based; details: T-cell, 3 μM NECA, rolipram, FACS
Protocol: Heparinised human whole blood was pre-incubated at 37° C. with serial dilutions of A2a antagonists for 20 min. and the phosphodiesterase inhibitor rolipram to amplify the pCREB response. The adenosine receptor agonist NECA is then added at a final concentration of 3 μM and following a 60 min incubation the blood is fixed and red blood cells lysed. White blood cells are isolated, permeabilized and stained with directly conjugated fluorescent antibodies to phospho-CREB (Alexa Fluor 488) and CD8 (Alexa Fluor 647) and the level of phospho-CREB in CD8+ T cells is measured by FACS using a BD Accuri C6 Flow Cytometer.

human Adenosine A1 receptor, sequence (P30542 whole entry): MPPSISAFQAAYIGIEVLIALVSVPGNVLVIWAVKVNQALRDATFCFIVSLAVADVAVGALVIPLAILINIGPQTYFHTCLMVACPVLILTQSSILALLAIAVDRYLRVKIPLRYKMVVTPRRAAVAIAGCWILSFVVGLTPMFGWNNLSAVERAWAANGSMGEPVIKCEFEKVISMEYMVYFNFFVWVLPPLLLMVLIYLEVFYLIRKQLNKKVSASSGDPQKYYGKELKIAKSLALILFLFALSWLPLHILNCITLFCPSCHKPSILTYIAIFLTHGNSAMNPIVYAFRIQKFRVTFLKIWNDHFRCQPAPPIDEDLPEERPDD

Ki [1] | Ki [2] | Ki [3] | Ki [4] | IC50 [5] | SMILES
2 nM | 2.69 nM | 3.3 nM | 820 nM |  | Cc1cc(-c2sc(NC(=O)N3CC4(COC4)C3)nc2-c2cccc(C#N)c2)cc2[nH]ncc12 [Example 2.2, N-[4-(3-Cyanophenyl)-5-(4-methyl-1H-indazol-6-yl)thiazol-2-yl]-2-oxa-6-azaspiro[3.3]heptane-6-carboxamide]
1 nM | 1.37 nM | 1.7 nM | 466 nM |  | Cc1cc(-c2sc(NC(=O)N3CC4(COC4)C3)nc2-c2cccc(C#N)c2)cc2[nH]nnc12 [Example 2.3, N-[4-(3-Cyanophenyl)-5-(7-methyl-3H-benzotriazol-5-yl)thiazol-2-yl]-2-oxa-6-azaspiro[3.3]heptane-6-carboxamide]
1 nM | 1 nM | 0.5 nM | 290 nM |  | N#Cc1cccc(-c2nc(NC(=O)N3CC4(COC4)C3)sc2-c2ccnc3[nH]ccc23)c1 [Example 2.4, N-[4-(3-Cyanophenyl)-5-(1H-pyrrolo[2,3-b]pyridin-4-yl)thiazol-2-yl]-2-oxa-6-azaspiro[3.3]heptane-6-carboxamide]
14 nM | 3.3 nM | 0.9 nM | 2600 nM |  | Cc1cc(-c2sc(NC(=O)N3CC4(COC4)C3)nc2-c2cccc(C#N)c2)c2cn[nH]c2n1 [Example 2.5, N-[4-(3-Cyanophenyl)-5-(6-methyl-1H-pyrazolo[3,4-b]pyridin-4-yl)thiazol-2-yl]-2-oxa-6-azaspiro[3.3]heptane-6-carboxamide]
48 nM | 0.15 nM | 1.3 nM |  | 10 nM | Cc1ncnc2ccc(-c3sc(NC(=O)N4CCC5(CC4)CNCCO5)nc3-c3cccc(C#N)c3)cc12 [Example 3.1, N-[4-(3-Cyanophenyl)-5-(4-methylquinazolin-6-yl)thiazol-2-yl]-1-oxa-4,9-diazaspiro[5.5]undecane-9-carboxamide]
27 nM | 0.19 nM | 1.9 nM |  | 10 nM | Cc1ncnc2ccc(-c3sc(NC(=O)N4CCC5(CNCCO5)C4)nc3-c3cccc(C#N)c3)cc12 (stereo not shown) [Example 4, N-[4-(3-Cyanophenyl)-5-(4-methylquinazolin-6-yl)thiazol-2-yl]-6-oxa-2,9-diazaspiro[4.5]decane-2-carboxamide]
121 nM | 36.9 nM | 0.9 nM | 828 nM |  | Cc1ncnc2ccc(-c3sc(NC(=O)N4CC[C@@](C)(C#N)C4)nc3-c3cccc(C#N)c3)cc12 [Example 7.1, (3R)-3-Cyano-N-[4-(3-cyanophenyl)-5-(4-methylquinazolin-6-yl)thiazol-2-yl]-3-methyl-pyrrolidine-1-carboxamide]
3 nM | 0.09 nM | 0.5 nM |  | 5 nM | Cc1ncnc2ccc(-c3sc(NC(=O)N4CC5(COC5)C4)nc3-c3cccc(C#N)c3)cc12 [Example 7.29, N-[4-(3-Cyanophenyl)-5-(4-methylquinazolin-6-yl)thiazol-2-yl]-2-oxa-6-azaspiro[3.3]heptane-6-carboxamide]
7 nM | 0.85 nM | 4.7 nM |  |  | N#Cc1cccc(-c2nc(NC(=O)N3CC4(COC4)C3)sc2-c2ccc3ncncc3c2)c1 [Example 10, N-[4-(3-Cyanophenyl)-5-quinazolin-6-yl-thiazol-2-yl]-2-oxa-6-azaspiro[3.3]heptane-6-carboxamide]
2 nM | 0.16 nM | 1.7 nM |  |  | CCc1ncnc2ccc(-c3sc(NC(=O)N4CC5(COC5)C4)nc3-c3cccc(C#N)c3)cc12 [Example 13, N-[4-(3-Cyanophenyl)-5-(4-ethylquinazolin-6-yl)thiazol-2-yl]-2-oxa-6-azaspiro[3.3]heptane-6-carboxamide]
12 nM | 0.42 nM | 2.8 nM |  |  | Cc1nc(C)c(-c2sc(NC(=O)N3CCC(C)(C#N)CC3)nc2-c2cccc(C#N)c2)o1 [Example 14, 4-Cyano-N-[4-(3-cyanophenyl)-5-(2,4-dimethyloxazol-5-yl)thiazol-2-yl]-4-methyl-piperidine-1-carboxamide]
14 nM | 1.74 nM | 6.2 nM |  |  | Cc1nc(C)c(-c2sc(NC(=O)N3CC4(COC4)C3)nc2-c2cccc(C#N)c2)o1 [Example 15, N-[4-(3-Cyanophenyl)-5-(2,4-dimethyloxazol-5-yl)thiazol-2-yl]-2-oxa-6-azaspiro[3.3]heptane-6-carboxamide]
1 nM | 3.11 nM | 0.8 nM | 305 nM |  | N#Cc1cccc(-c2nc(NC(=O)N3CC4(COC4)C3)sc2-c2c[nH]c3ncccc23)c1 [Example 17, N-[4-(3-Cyanophenyl)-5-(1H-pyrrolo[2,3-b]pyridin-3-yl)thiazol-2-yl]-2-oxa-6-azaspiro[3.3]heptane-6-carboxamide]
1 nM | 0.11 nM | 0.9 nM | 2630 nM |  | Cc1cc(-c2sc(NC(=O)N3CC4(COC4)C3)nc2-c2cccc(C#N)c2)cn2c(C)cnc12 [Example 18, N-[4-(3-Cyanophenyl)-5-(3,8-dimethylimidazo[1,2-a]pyridin-6-yl)thiazol-2-yl]-2-oxa-6-azaspiro[3.3]heptane-6-carboxamide]
240 nM | 2 nM | 1.8 nM |  | 216 nM | Cc1cc(-c2sc(NC(=O)N3CCC(C)(C#N)CC3)nc2-c2cccc(C#N)c2)c2[nH]ncc2n1 [Example 19, 4-Cyano-N-[4-(3-cyanophenyl)-5-(5-methyl-1H-pyrazolo[4,3-b]pyridin-7-yl)thiazol-2-yl]-4-methyl-piperidine-1-carboxamide]
4 nM | 8.33 nM | 2.6 nM | 421 nM |  | Cn1ccc2c(-c3sc(NC(=O)N4CC5(COC5)C4)nc3-c3cccc(C#N)c3)ccnc21 [Example 21, N-[4-(3-Cyanophenyl)-5-(1-methylpyrrolo[2,3-b]pyridin-4-yl)thiazol-2-yl]-2-oxa-6-azaspiro[3.3]heptane-6-carboxamide]
0.4 nM | 0.15 nM | 1.4 nM | 2550 nM |  | Cc1cnc2ccc(-c3sc(NC(=O)N4CC5(COC5)C4)nc3-c3cccc(C#N)c3)cn12 [Example 22, N-[4-(3-Cyanophenyl)-5-(3-methylimidazo[1,2-a]pyridin-6-yl)thiazol-2-yl]-2-oxa-6-azaspiro[3.3]heptane-6-carboxamide]
245 nM | 10.5 nM | 7.2 nM |  |  | Cc1cc(-c2sc(NC(=O)N3CC4(COC4)C3)nc2-c2cccc(C#N)c2)c2ccn(C)c2n1 [Example 24, N-[4-(3-Cyanophenyl)-5-(1,6-dimethylpyrrolo[2,3-b]pyridin-4-yl)thiazol-2-yl]-2-oxa-6-azaspiro[3.3]heptane-6-carboxamide]
4 nM | 1.88 nM | 1.3 nM |  |  | Cc1cc(-c2sc(NC(=O)N3CC4(COC4)C3)nc2-c2cccc(C#N)c2)cn2ccnc12 [Example 29, N-[4-(3-Cyanophenyl)-5-(8-methylimidazo[1,2-a]pyridin-6-yl)thiazol-2-yl]-2-oxa-6-azaspiro[3.3]heptane-6-carboxamide]
14 nM | 0.59 nM | 13.2 nM |  |  | Cc1cc(-c2sc(NC(=O)N3CC4(COC4)C3)nc2-c2cccc(C#N)c2)cc2cnn(C)c12 [Example 30, N-[4-(3-Cyanophenyl)-5-(1,7-dimethylindazol-5-yl)thiazol-2-yl]-2-oxa-6-azaspiro[3.3]heptane-6-carboxamide]
